Columns and labels:
MCF7 = assay: cells; assay type: functional; settings: Homo sapiens, MCF7, 96 h
Description: Growth inhibition of human MCF7 cells after 96 hrs by MTT assay

cells [1] = assay type: functional; settings: Homo sapiens, HCT-116, 96 h
Description: Growth inhibition of human HCT116 cells after 96 hrs by MTT assay

HT-29 = assay: Growth inhibition of human HT-29 cells after 96 hrs by MTT assay; assay type: functional; settings: Homo sapiens, HT-29, 96 h
MDA-MB-231 = assay: cells; assay type: functional; settings: Homo sapiens, MDA-MB-231, 96 h
Description: Growth inhibition of human MDA-MB-231 cells after 96 hrs by MTT assay

A549 = assay: cells; assay type: functional; settings: Homo sapiens, A549, 96 h
Description: Growth inhibition of human A549 cells after 96 hrs by MTT assay

cells [2] = assay type: functional; settings: Homo sapiens, PC-3, 96 h
Description: Growth inhibition of human PC3 cells after 96 hrs by MTT assay

cells [3] = assay type: functional; settings: Homo sapiens, ASPC1, 96 h
Description: Growth inhibition of human Aspc-1 cells after 96 hrs by MTT assay

[4] = Cytotoxicity against HEK293 cells assessed as growth inhibition after 96 hrs by MTT assay; settings: human
Histone deacetylase = assay: Inhibition of HDAC in human HeLa cell nuclear extract using Boc-Lys(Ac)-AMC as substrate preincubated for 15 mins followed by substrate addition measured after 60 mins by fluorescence-based assay
Histone deacetylase 1 = Histone deacetylase 1 (Homo sapiens, UniProt Q13547); assay: Inhibition of recombinant human HDAC1 using Boc-Lys(Ac)-AMC as substrate preincubated for 15 mins followed by substrate addition measured after 60 mins by fluorescence-based assay
[5] = biological target: T1, Protein deacetylase HDAC6 (Homo sapiens, UniProt Q9UBN7); assay: Inhibition of recombinant human HDAC6 using Boc-Lys(Ac)-AMC as substrate preincubated for 15 mins followed by substrate addition measured after 60 mins by fluorescence-based assay
T1 sequence (Q9UBN7 whole entry): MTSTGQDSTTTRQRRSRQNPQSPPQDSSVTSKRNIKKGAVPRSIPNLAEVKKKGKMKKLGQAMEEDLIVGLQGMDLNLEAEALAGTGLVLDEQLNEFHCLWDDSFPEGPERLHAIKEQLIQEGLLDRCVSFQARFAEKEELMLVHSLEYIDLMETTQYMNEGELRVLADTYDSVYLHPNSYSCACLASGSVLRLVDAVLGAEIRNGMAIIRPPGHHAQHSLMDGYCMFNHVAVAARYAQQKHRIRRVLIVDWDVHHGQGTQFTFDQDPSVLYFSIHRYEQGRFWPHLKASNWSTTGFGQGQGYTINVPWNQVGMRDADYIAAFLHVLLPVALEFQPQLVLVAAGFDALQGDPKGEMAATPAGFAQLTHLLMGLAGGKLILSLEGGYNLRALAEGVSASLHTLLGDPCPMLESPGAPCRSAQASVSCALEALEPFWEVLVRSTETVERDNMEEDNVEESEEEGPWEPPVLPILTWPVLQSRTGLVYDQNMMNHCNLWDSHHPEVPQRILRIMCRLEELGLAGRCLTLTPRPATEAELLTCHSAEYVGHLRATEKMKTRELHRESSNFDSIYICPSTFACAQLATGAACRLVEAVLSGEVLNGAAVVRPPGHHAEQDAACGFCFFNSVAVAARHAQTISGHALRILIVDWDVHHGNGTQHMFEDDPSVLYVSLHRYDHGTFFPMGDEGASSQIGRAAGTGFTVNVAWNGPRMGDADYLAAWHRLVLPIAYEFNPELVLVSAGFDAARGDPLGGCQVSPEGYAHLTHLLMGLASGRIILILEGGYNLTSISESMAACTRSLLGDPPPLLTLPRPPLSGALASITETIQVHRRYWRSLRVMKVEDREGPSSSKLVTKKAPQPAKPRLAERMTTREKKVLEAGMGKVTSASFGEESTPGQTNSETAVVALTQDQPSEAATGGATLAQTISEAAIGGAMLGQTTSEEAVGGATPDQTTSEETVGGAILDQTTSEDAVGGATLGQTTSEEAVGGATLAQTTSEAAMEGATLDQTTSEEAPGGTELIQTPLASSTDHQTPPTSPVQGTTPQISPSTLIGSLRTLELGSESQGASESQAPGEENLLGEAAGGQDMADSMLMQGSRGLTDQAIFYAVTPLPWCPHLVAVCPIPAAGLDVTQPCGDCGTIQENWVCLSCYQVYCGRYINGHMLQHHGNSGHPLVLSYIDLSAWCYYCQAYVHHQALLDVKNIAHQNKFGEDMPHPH

Sequence of Histone deacetylase 1 (Q13547 whole entry): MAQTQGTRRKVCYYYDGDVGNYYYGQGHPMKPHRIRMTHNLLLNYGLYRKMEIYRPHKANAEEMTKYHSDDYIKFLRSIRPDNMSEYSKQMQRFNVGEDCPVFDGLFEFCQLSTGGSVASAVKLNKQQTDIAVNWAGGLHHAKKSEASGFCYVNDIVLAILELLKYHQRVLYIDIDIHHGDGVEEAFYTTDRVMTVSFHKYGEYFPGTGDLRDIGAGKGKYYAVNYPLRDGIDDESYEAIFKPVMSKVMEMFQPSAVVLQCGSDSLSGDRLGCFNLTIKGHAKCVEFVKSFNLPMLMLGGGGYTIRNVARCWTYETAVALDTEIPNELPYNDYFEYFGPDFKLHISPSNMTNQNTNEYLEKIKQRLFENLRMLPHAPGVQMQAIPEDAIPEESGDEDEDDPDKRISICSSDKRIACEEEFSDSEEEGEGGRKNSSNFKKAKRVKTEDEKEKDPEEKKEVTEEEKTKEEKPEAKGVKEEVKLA

| Compound | GI50 (MCF7) [µM] | GI50 (cells [1]) [µM] | GI50 (HT-29) [µM] | GI50 (MDA-MB-231) [µM] | GI50 (A549) [µM] | GI50 (cells [2]) [µM] | GI50 (cells [3]) [µM] | GI50 at 96 h [4] [µM] | IC50 (Histone deacetylase) [µM] | IC50 (Histone deacetylase 1) [µM] | IC50 [5] [µM] |
| --- | --- | --- | --- | --- | --- | --- | --- | --- | --- | --- | --- |
| CCC(=O)SCCCCCCNC(=O)c1cc(-c2ccncc2)n[nH]1 | > 50 | > 50 | > 50 | > 50 | > 50 | > 50 | > 50 | > 50 |  |  |  |
| O=C(NCCCCCCS)c1cc(-c2c[nH]c3ccccc23)n[nH]1 | 18.2 | > 50 |  |  |  |  |  |  | 0.07 | 0.15 | 0.033 |
| Cc1cc(C(=O)NCCCCCCS)[nH]n1 | > 50 | > 50 |  |  |  |  |  |  | 0.715 |  |  |
| O=C(OCc1ccccc1)SCCCCCCNC(=O)c1cc(-c2ccncc2)n[nH]1 | 8.37 | 18.2 | 22 | 24.7 | 13.4 | 15.4 | 32.3 | 19.7 |  |  |  |
| CC(C)C(=O)SCCCCCCNC(=O)c1cc(-c2ccncc2)n[nH]1 | 15.2 | 22.7 | 25.7 | > 50 | 16.8 | 22.4 | 31.7 | > 50 |  |  |  |
| O=C(NCCCCCCS)c1cc(-c2ccc(-c3ccccc3)cc2)n[nH]1 | > 50 | > 50 |  |  |  |  |  |  | 0.043 | 0.225 | 0.106 |
| CCCCCCCC/C=C\CCCCCCCC(=O)SCCCCCCNC(=O)c1cc(-c2ccncc2)n[nH]1 | 31.1 | 39.3 | 23.5 | > 50 | 33.3 | > 50 | > 50 | > 50 |  |  |  |
| O=C(NCCCCCCS)c1cc(C2CCCCC2)n[nH]1 | > 50 | > 50 |  |  |  |  |  |  | 0.364 | 0.331 | 0.241 |
| COc1ccc(-c2cc(C(=O)NCCCCCCS)[nH]n2)cc1OC | 30.8 | > 50 |  |  |  |  |  |  | 0.056 | 0.31 | 0.056 |
| C=CCOC(=O)SCCCCCCNC(=O)c1cc(-c2ccncc2)n[nH]1 | 12.6 | 32.9 | 11.9 | 36 | 15.2 | 24.8 | 27.5 | 27.5 |  |  |  |
| O=C(NCCCCCCS)c1cc(-c2ccc(F)cc2)n[nH]1 | > 50 | > 50 |  |  |  |  |  |  | 0.245 |  |  |
| COc1cc(-c2cc(C(=O)NCCCCCCS)[nH]n2)cc(OC)c1OC | > 50 | > 50 |  |  |  |  |  |  | 0.102 | 0.422 | 0.084 |

From ChEMBL document CHEMBL3758091, “Identification of N-(6-mercaptohexyl)-3-(4-pyridyl)-1H-pyrazole-5-carboxamide and its disulfide prodrug as potent histone deacetylase inhibitors with in vitro and in vivo anti-tumor efficacy” (Eur J Med Chem, 2016)
